What was measured:
[1] = system: human B-cell lymphoma OCI-LY10 cells subcutaneous xenograft tumor; assay: In vivo pharmacodynamic study in OCI-LY10 subcutaneous xenograft tumor mouse model; conditions: ibrutinib 10 mpk, WX005 50 mpk; for T/C value / TGI value: day 18 after start of administration, WX005 + ibrutinib 50+10 mpk
Method: The purpose of this experiment was to evaluate the efficacy of test drug WX005 on human B-cell lymphoma OCI-LY10 cell subcutaneous xenograft tumors in a CB17 SCID mouse model in vivo.
OCI-LY10 human B cell lymphoma cells, cultured in a 5% CO2 incubator at 37° C.
OCI-LY10 tumor cells were subcultured. 0.2 mL (1×10^7 cells) of OCI-LY10 cells (along with matrigel in a volume ratio of 1:1) was subcutaneously inoculated on the right back of each […], and the mice were administered in groups when the average tumor volume was 167 mm^3. Animals were monitored daily for health and death, and routine examinations include observation of the effect of tumor growth and drug treatment on the daily performance of the animals, such as behavioral activities, food and water intake, weight changes (twice weekly), tumor size (twice weekly for tumor volume), appearance signs, or other abnormal conditions.
The experimental indices were to investigate whether tumor growth was inhibited or delayed or the tumor was cured. The procedures comprised measuring tumor volume (TV), and calculating the tumor inhibiting therapeutic effect TGI (%) or relative tumor proliferation rate T/C (%) of the compound. TV=0.5a×b^2, where a and b represent the long diameter and short diameter of the tumor, respectively.
T/C%=TRTV/CRTV×100% (TRTV: RTV of treatment group; CRTV: RTV of negative control group). Relative tumor volume (RTV) was calculated based on the results of tumor measurement. The calculation formula was: RTV=Vt/V0, wherein Vo was the average tumor volume measured at the time of grouping and administration (i.e., d0), Vt was the average tumor volume at a certain measurement, and the data of TRTV and CRTV were obtained on the same day.

human IRAK4 = target: T1, human IRAK4 (Homo sapiens, UniProt Q9NWZ3); assay: 33P-labeled kinase activity assay (in vitro enzymatic activity evaluation); format: biochemical
T1 construct: purchased Reaction Biology Corp
T1 sequence (Q9NWZ3 1-460): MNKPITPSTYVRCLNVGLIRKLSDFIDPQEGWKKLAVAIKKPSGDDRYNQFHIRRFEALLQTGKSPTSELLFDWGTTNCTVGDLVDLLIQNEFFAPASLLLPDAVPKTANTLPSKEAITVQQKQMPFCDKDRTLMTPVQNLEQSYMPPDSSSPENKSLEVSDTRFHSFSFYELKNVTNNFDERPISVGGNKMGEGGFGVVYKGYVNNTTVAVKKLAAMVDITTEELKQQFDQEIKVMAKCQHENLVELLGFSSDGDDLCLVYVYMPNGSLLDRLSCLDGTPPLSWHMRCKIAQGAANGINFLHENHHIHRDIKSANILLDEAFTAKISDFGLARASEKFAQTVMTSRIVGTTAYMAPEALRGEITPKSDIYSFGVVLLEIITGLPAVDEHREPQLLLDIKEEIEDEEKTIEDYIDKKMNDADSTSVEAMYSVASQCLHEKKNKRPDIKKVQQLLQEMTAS
Method: The inhibitory activity of the test compounds against human IRAK4 was evaluated by determining IC50 values in a ^33P-labeled kinase activity assay (Reaction Biology Corp).
Buffer conditions: 20 mM Hepes (pH 7.5), 10 mM MgCl2, 1 mM EGTA, 0.02% Brij35, 0.02 mg/mL BSA, 0.1 mM Na3VO4, 2 mM DTT, 1% DMSO.
Procedures: The test compound was dissolved in DMSO at room temperature to prepare a 10 mM solution for later use. The substrates were dissolved in freshly formulated buffers. The kinase was added, and mixture was stirred homogeneously. The DMSO solution containing the test compound was added to the above mixed reaction system by an acoustic technique (Echo 550). After 15 minutes of incubation, the reaction was started by adding ^33P-ATP. After 120 minutes of reaction at room temperature, the resulting solution was loaded on P81 ion exchange chromatography paper sheet (Whatman #3698-915). After repeated washings with 0.75% phosphoric acid solution, the radioactivity of the phosphorylated substrate residue on the paper sheet was measured. The kinase activity data are shown as a comparison of the kinase activity of the test compound and the kinase activity of the blank (DMSO only) and a curve was fitted using Prism4 software (GraphPad) to give IC50 values, with the experimental results shown in Table 5.

THP-1 cells = assay: cells; conditions: Homo sapiens, THP-1, 18 h, read-out: THP-1/IC50
Method: TNF-α ELISA in THP-1 cells
THP-1 human acute […] leukemia cells were purchased from ATCC (Cat # TIB-202) and incubated in a5% CO2 incubator at 37° C. The medium was RPMI1640 (Gibco, Cat # 22400-105), the supplementary was 10% FBS (Gibco, Cat # 10091148); 1% PenStrep (Gibco, Cat # 15140); 0.05 mM 2-mercaptoethanol (Sigma, Cat # M6250).
TNF-α content in the cell culture supernatant was measured by a TNF-α Elisa kit. TNF-α was produced by stimulation of THP-1 cells with 150 ng/mL LPS (Sigma, Cat # L6529). Normal THP-1 cells in logarithmic phase were seeded in 96-well plates (Corning #3599) at a certain concentration (1×10^5/100 μL) and then incubated in an incubator. After two hours, 16.7 μL of test compound of different concentrations (8×final concentration) was added and the mixture was incubated in the incubator. After one hour, 16.7 μL of 1200 ng/mL LPS was added and the mixture was incubated in the incubator. After 18 h, the culture was centrifuged and the probe of the supernatant was collected. The TNF-α content was measured by a TNF-α Elisa kit. Finally, the OD signals (OD450-OD570) were read on an envision plate reader.
The OD450-OD570 signals were converted to percent inhibition.
Inhibition%=(ZPE−sample)/(ZPE−HPE)×100.
“HPE” represents the OD450-OD570 signal value of the control well without LPS-stimulated cells, and “ZPE” represents the OD450-OD570 signal value of the control well with LPS-stimulated cells.
IC50 values for compounds were calculated by XLFit in the Excel.
Equation:y=Bottom+(Top-Bottom)/(1+(IC50/X)^ HillSlope).

[2] = system: lipopolysaccharide (LPS)-induced TNF-α secretion; assay: Pharmacodynamic study of LPS-induced TNF-α secretion in SD rats; format: in vivo; conditions: oral
Method: SD rats were orally administered with a solvent, dexamethasone (DEX, 0.5 mg/kg) as positive control, and the test compound, and were intraperitoneally injected with LPS (1 mg/kg) 0.5 hours after the administration. Animals were euthanized with CO2 2 h after LPS injection. Cardiac blood was collected into EDTA-K2 vacutainers, and a part of the anticoagulated blood was centrifuged and the plasma was frozen at −80° C.
Frozen plasma was thawed at room temperature and the concentration of TNF-α in the plasma was measured using ELISA kit.
The experimental data were expressed using mean±SEM, and TNF-α levels were analyzed by One-way ANOVA. Significant differences were considered for p<0.05.

[3] = system: collagen-induced arthritis; assay: In vivo efficacy assay of collagen-induced mouse arthritis; design: species or system DBA/1 mice; conditions: 100 mg/kg twice daily for 14 days, oral gavage
Method: The purpose of this experiment was to investigate the therapeutic effect of compound WX005 in a mouse model of collagen-induced arthritis.
Animals: male DBA/1 mice aged 6-8 weeks; supplier: Vital River.
Grouping: Among 39 DBA/1 mice, 5 mice were randomly selected as normal controls, and the other 34 were immunized. The day of the first immunization was recorded as Day 0. During modeling, DBA/1 mice were anesthetized with isoflurane and sensitized by injecting 50 microliters of prepared collagen emulsion (containing 200 micrograms of CII) subcutaneously on the tail (2-3 cm from the root of the tail). On Day 23, 100 microliters of 0.3 mg/mL LPS solution (containing 30 micrograms of LPS) was intraperitoneally injected. Mice in the normal group were not immunized.
On Day 26, when the average clinical score reached about 0.8, 24 mice with clinical scores of 0-1 were selected, and the mice were randomly grouped into 3 treatment groups of 8 according to the body weight and the score. […]
Clinical observation: the general health and body weight changes of DBA/1 mice were observed daily from 7 days before immunization to Day 23 after immunization (recorded once weekly). After Day 23, mice were observed daily for health, morbidity, and weight changes (recorded at least three times a week) until the end of assay. […]

IC50 (human IRAK4) | Structure (SMILES) | other results
– | C=CC(=O)N1CCC[C@@H](n2nc(-c3ccc(Oc4ccccc4)cc3)c3c(N)ncnc32)C1 [ibrutinib, reference compound] | T/C value [1]: 39%; TGI value [1]: 85%
1.2 nM | CC(C)(O)CCc1cn2cc(NC(=O)c3cccc(C(F)(F)F)n3)c(N3CCC(C(N)=O)CC3)cc2n1 [WX016] | IC50 (THP-1 cells): 181 nM
1.3 nM | CC(C)(O)CCc1cn2cc(NC(=O)c3cccc(C(F)(F)F)n3)c(N3CCC(CN)CC3)cc2n1 [WX017] | –
20.5 nM | NCC1CCN(c2cc3nc(CCC(=O)O)cn3cc2NC(=O)c2cccc(C(F)(F)F)n2)CC1 [WX020] | –
3.8 nM | CC(C)(O)CCc1cn2cc(NC(=O)c3cccc(C(F)(F)F)n3)c(N3CCCC(O)C3)cc2n1 (stereo not shown) [WX006] | –
19.4 nM | NC(=O)C1CCN(c2cc3nc(CCC(=O)O)cn3cc2NC(=O)c2cccc(C(F)(F)F)n2)CC1 [WX019] | –
1.7 nM | CCOc1cc2nc(CCC(C)(C)O)cn2cc1NC(=O)c1cccc(C(F)(F)F)n1 [WX014] | –
4.6 nM | CC(=O)N1CCN(c2cc3nc(CCC(C)(C)O)cn3cc2NC(=O)c2cccc(C(F)(F)F)n2)CC1 [WX004] | –
9.8 nM | CC1(O)CCN(c2cc3nc(CCC(=O)O)cn3cc2NC(=O)c2cccc(C(F)(F)F)n2)CC1 [WX018] | –
1.5 nM | CC(C)(O)CCc1cn2cc(NC(=O)c3cccc(C(F)(F)F)n3)c(N3CCNCC3)cc2n1 [WX008] | –
2.2 nM | CC(C)(O)CCc1cn2cc(NC(=O)c3cccc(C(F)(F)F)n3)c(N3CCOCC3)cc2n1 [WX001] | –
3.6 nM | CC(C)(O)CCc1cn2cc(NC(=O)c3cccc(C(F)(F)F)n3)c(C3CC3)cc2n1 [WX013] | –
1.3 nM | CS(=O)(=O)CCc1cn2cc(NC(=O)c3cccc(C(F)(F)F)n3)c(N3CCC(O)CC3)cc2n1 [WX023] | –
1.2 nM | CC(C)(O)CCc1cn2cc(NC(=O)c3cccc(C(F)(F)F)n3)c(N3CCCCC3)cc2n1 [WX003] | –
4.6 nM | COC(=O)N1CCN(c2cc3nc(CCC(C)(C)O)cn3cc2NC(=O)c2cccc(C(F)(F)F)n2)CC1 [WX010] | –
0.5 nM | CC1(O)CCN(c2cc3nc(CCS(C)(=O)=O)cn3cc2NC(=O)c2cccc(C(F)(F)F)n2)CC1 [WX025] | –
0.4 nM | CC(C)(O)CCc1cn2cc(NC(=O)c3cccc(C(F)(F)F)n3)c(C(C)(C)O)cc2n1 [WX002] | IC50 (THP-1 cells): 54 nM
0.9 nM | CC(C)(O)CCc1cn2cc(NC(=O)c3cccc(C(F)(F)F)n3)c(N3CCC(CO)CC3)cc2n1 [WX007] | –
7.1 nM | O=C(O)CCc1cn2cc(NC(=O)c3cccc(C(F)(F)F)n3)c(N3CCC(CO)CC3)cc2n1 [WX021] | –
0.7 nM | CC(C)(O)CCc1cn2cc(NC(=O)c3cccc(C(F)(F)F)n3)c(N3CCC(C)(O)CC3)cc2n1 [WX015] | IC50 (THP-1 cells): 201 nM

Structure (SMILES) | IC50 (human IRAK4) | other results
CC(C)(O)CCc1cn2cc(NC(=O)c3cccc(C(F)(F)F)n3)c(N3CCC(O)CC3)cc2n1 [WX005] | 1.3 nM | IC50 (THP-1 cells): 114 nM; inhibitory effect on LPS-induced TNF-α secretion (plasma TNF-α) ([2]; LPS 1 mg/kg i.p. 0.5 h after administration, plasma 2 h after LPS): significant inhibitory effect; potency on LPS-induced TNF-α secretion compared with dexamethasone ([2]; WX005 30 mpk vs dexamethasone (DEX) 0.5 mpk): potency equivalent to that of dexamethasone; dose-response of inhibition of LPS-induced TNF-α secretion ([2]; doses 3 mpk, 10 mpk, 30 mpk): clear dose-response relationship; tolerability (body weight, abnormality) in tumor-bearing mice ([1]; 18 days of treatment): good tolerability in animals; T/C value [1]: 53%; TGI value [1]: 66%; body weight of the mice [3]: increased steadily; clinical score of arthritis (efficacy) [3]: excellent efficacy
